The text below walks through data of ChEMBL document CHEMBL4392847, “Inhibition of pre-miRNA-136 processing by Dicer with small molecule BzDANP suggested the formation of ternary complex of pre-miR-136-BzDANP-Dicer” (Bioorg Med Chem, 2019).

The source made the active and inactive calls. No cut-off for these calls is given here.

Assay [1] deals with pre-microRNA 136. As to the kind of experiment: Binding affinity to pre-miR-136 RNA (unknown origin) at 0.063 to 1 uM by SPR assay. The format is nucleic-acid assay. (SPR reads the build-up and loss of mass on a sensor chip optically.)
The nature of assay [2]: Binding affinity to pre-miR-136 RNA delta-C-bulge mutant (unknown origin) at 0.063 to 1 uM by SPR assay.
A short description of assay [3]: Binding affinity to pre-miR-136 RNA delta-internal loop mutant (unknown origin) at 0.063 to 1 uM by SPR assay.
Assay [4] in a line: Binding affinity to pre-miR-136 RNA hairpin mutant (unknown origin) at 0.063 to 1 uM by SPR assay.
Assay [5] relates to pre-microRNA 136. As to the kind of experiment: Binding affinity to pre-miR-136 RNA (unknown origin) at 63 nM by SPR assay. The format is nucleic-acid assay.
Assay [6] deals with pre-microRNA 136. As to the kind of experiment: Binding affinity to pre-miR-136 RNA (unknown origin) assessed as reduction in Km(app) for human recombinant Dicer-mediated substrate cleavage at 100 uM incubated for 30 mins using 32P-labeled RNA by denaturing polyacrylamide gel electrophoresis method. The format is nucleic-acid assay.
In assay [7] the test system is pre-microRNA 136. The experiment in a line: Binding affinity to C-bulge site of pre-miR-136 RNA (unknown origin) at RNA to compound molar ratio of 1:0 by NMR titration assay. The format is nucleic-acid assay.
Assay [8] in a line: Binding affinity to pre-miR-136 RNA delta-internal loop mutant (unknown origin) assessed as reduction in human recombinant Dicer-mediated substrate cleavage by measuring cleavage efficiency at 200 uM incubated for 30 mins using 32P-labeled RNA by denaturing polyacrylamide gel electrophoresis method (reference value: 94.5 +/- 1.4%). Also noted: scale not given: the % may be the effect or the level left.

The test system of assay [9] is pre-microRNA 136. As to the kind of experiment: Binding affinity to hairpin loop site of pre-miR-136 RNA (unknown origin) at RNA to compound molar ratio of 1:0 by NMR titration assay. The format is nucleic-acid assay.
Assay [10] relates to pre-microRNA 136. As to the kind of experiment: Binding affinity to pre-miR-136 RNA (unknown origin) assessed as reduction in human recombinant Dicer-mediated substrate cleavage by measuring cleavage efficiency at 200 uM incubated for 30 mins using 32P-labeled RNA by denaturing polyacrylamide gel electrophoresis method (reference value: 94.3 +/- 2.3%). The format is nucleic-acid assay. Also noted: scale not given: the % may be the effect or the level left.

The nature of assay [11]: Binding affinity to pre-miR-136 RNA delta-C-bulge mutant (unknown origin) assessed as normalized equilibrium binding response (Req) value at 1 uM by SPR assay relative to control.
A short description of assay [12]: Binding affinity to pre-miR-136 RNA delta-C-bulge mutant (unknown origin) at <0.5 uM by SPR assay.
Assay [13] deals with pre-microRNA 136. As to the kind of experiment: Binding affinity to pre-miR-136 RNA (unknown origin) assessed as normalized equilibrium binding response (Req) value at 1 uM by SPR assay relative to control. The format is nucleic-acid assay.
Assay [14] is described as follows: Binding affinity to pre-miR-136 RNA delta-internal loop mutant (unknown origin) assessed as normalized equilibrium binding response (Req) value at 1 uM by SPR assay relative to control.
Assay [15] concerns pre-microRNA 136. As to the kind of experiment: Binding affinity to pre-miR-136 RNA (unknown origin) assessed as reduction in human recombinant Dicer-mediated substrate cleavage incubated for 30 mins using 32P-labeled RNA by denaturing polyacrylamide gel electrophoresis method. The format is nucleic-acid assay.
The test system of assay [16] is pre-microRNA 136. The experiment in a line: Binding affinity to internal loop site of pre-miR-136 RNA (unknown origin) at RNA to compound molar ratio of 1:0 by NMR titration assay. The format is nucleic-acid assay.
The subject of assay [17] is pre-microRNA 136. The experiment in a line: Binding affinity to pre-miR-136 RNA (unknown origin) assessed as reduction in initial velocity of human recombinant Dicer-mediated substrate cleavage at 100 uM incubated for 30 mins using 32P-labeled RNA by denaturing polyacrylamide gel electrophoresis method. The format is nucleic-acid assay.
Assay [18] is described as follows: Binding affinity to pre-miR-136 RNA hairpin mutant (unknown origin) assessed as reduction in human recombinant Dicer-mediated substrate cleavage by measuring cleavage efficiency at 200 uM incubated for 30 mins using 32P-labeled RNA by denaturing polyacrylamide gel electrophoresis method (reference value: 59.1 +/- 2.4%). Also noted: scale not given: the % may be the effect or the level left.

Assay [19] is described as follows: Binding affinity to pre-miR-136 RNA hairpin mutant (unknown origin) at <0.5 uM by SPR assay.
A short description of assay [20]: Binding affinity to pre-miR-136 RNA delta-C-bulge mutant (unknown origin) assessed as reduction in human recombinant Dicer-mediated substrate cleavage by measuring cleavage efficiency at 200 uM incubated for 30 mins using 32P-labeled RNA by denaturing polyacrylamide gel electrophoresis method (reference value: 89.1 +/- 2.3%). Also noted: scale not given: the % may be the effect or the level left.

The subject of assay [21] is pre-microRNA 136. The experiment in a line: Binding affinity to pre-miR-136 RNA (unknown origin) assessed as reduction in Vmax(app) for human recombinant Dicer-mediated substrate cleavage at 100 uM incubated for 30 mins using 32P-labeled RNA by denaturing polyacrylamide gel electrophoresis method. The format is nucleic-acid assay.

For orientation: Kd means the concentration at which binding is half-saturated. As to `Nc1ccc2ccc(N)nc2n1`, the Kd result (in the assay with pre-microRNA 136 [1]; in assay [2]; in assay [3]; in [4]) was “Not Active” each time.

The term Km denotes the concentration of substrate that gives half-maximal velocity. Regarding `NCCCNc1ccc2c(n1)nc(NCCCN)c1ccccc12`, the outcome in the assay with pre-microRNA 136 [5], in the assay with pre-microRNA 136 [7] and in the assay with pre-microRNA 136 [17] was Active. For the same molecule, the Km with pre-microRNA 136 [6] came out at 0.0279 µM. Besides, the Activity is 80.6% in [8]; 71.9% in the assay with pre-microRNA 136 [10]; 1.73 RU in assay [11]; 4.32 RU in the assay on pre-microRNA 136 [13]; 4.73 RU in [14]; “Dose-dependent effect” with pre-microRNA 136 [15]. Moreover, the Activity is 58.2% in assay [18] and 80.5% in [20]. In addition, the result (in the assay on pre-microRNA 136 [9]; in assay [12]; in the assay with pre-microRNA 136 [16]; in [19]) was inactive. For the same molecule, the equilibrium dissociation constant (Kd) was found to be 0.47 µM on pre-microRNA 136 [1] (read-out: Kd), 3200 µM in assay [2] (read-out: Kd), 0.45 µM in [3] (read-out: Kd) and 65000 µM in [4] (read-out: Kd). Further, the Vmax(app) in the assay with pre-microRNA 136 [21] stood at 0.38 nM/min.
